Measured values taken from US11203576B2, “Aurora kinase and Janus kinase inhibitors for prevention of graft versus host disease” (H. LEE MOFFITT CANCER CENTER AND RESEARCH INSTITUTE, INC., priority 2016, dated 2021).

Legend:
[1] = test system: H3 Ser10 (target of Aurora); assay: H3 Ser10 phosphorylation in DC-allostimulated T-cells (flow cytometry); assay type: cell-based, human; conditions: 5-day allogeneic DC stimulation; AJI 750 nM, alisertib 1.75 μM, TG101348 350 nM
Protocol: After 5 days, T cells were then harvested and directly fixed (Cytofix, BD Biosciences) for 10 min at 37° C. After washing with phosphate-buffered saline, the T cells were permeabilized with icecold methanol (90%, v/v) for at least 20 min at -20° C. The cells were stained for expression of CD3 and pH[…].

U937 cells = assay: CTL generation and tumor lysis assays; assay type: cell-based, human; conditions: NSG mice, 50 mg/kg daily, irradiated U937 on days 0 and +7, vs vehicle; listed as AJI-100
Protocol: NSG mice were transplanted with human PBMCs as described above, and treated with either AJI-100 (50 mg/kg daily) or vehicle control. Additionally, recipient mice received an inoculum of irradiated U937 cells (ATCC, 10^7/mouse) on days 0 and +7. Mice were euthanized between days +10 to +12, spleens were harvested, and human CD8^+ T-cells were isolated by magnetic bead separation. Fresh U937 target cells were labeled with Calcein-AM for 30 minutes, washed, and then cultured with the purified CD8^+ T-cells at varying effector to target ratios for 4 hours at 37° C. No additional drugs were added during this final culture. […] Percent lysis was calculated as follows: [(test fluorescence−spontaneous fluorescence)/(maximum fluorescence−spontaneous fluorescence)]×100.

Aurora kinase A = biological target: T1, Aurora kinase A (Homo sapiens, UniProt O14965); assay: Kinase target screen, panel of 140 kinases; assay type: biochemical
T1 sequence (O14965 1-403): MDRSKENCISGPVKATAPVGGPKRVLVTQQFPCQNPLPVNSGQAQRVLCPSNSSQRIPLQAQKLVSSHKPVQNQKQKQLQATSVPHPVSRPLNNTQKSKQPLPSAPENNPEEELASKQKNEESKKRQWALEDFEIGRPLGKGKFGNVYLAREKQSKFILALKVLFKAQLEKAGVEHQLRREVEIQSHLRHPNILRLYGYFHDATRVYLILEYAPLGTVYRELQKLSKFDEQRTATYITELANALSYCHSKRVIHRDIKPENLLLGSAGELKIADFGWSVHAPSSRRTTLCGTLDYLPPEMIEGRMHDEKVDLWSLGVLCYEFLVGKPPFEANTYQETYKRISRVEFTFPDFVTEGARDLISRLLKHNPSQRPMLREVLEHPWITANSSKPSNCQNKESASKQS
Protocol: Allogeneic mixed leukocyte reactions (alloMLRs) are standard assays used to assess human T cell proliferation against polyclonal or antigen-specific stimuli. In alloMLRs consisting of human T cells and allogeneicmonocyte-derived dendritic cells (DCs), the JAK2 inhibitor TG101348 reduced alloreactive T cell proliferation at concentrations of 350 nM and greater as previously reported (FIG. 9A). […] Synergistic suppression of T cells allostimulated by DCs was achieved when TG101348 and alisertib were added together at a ratio of 1:5, respectively, with a calculated combination index (CI) of <1 using the Chou-Talalay method (FIG. 9A). […] The chemical analogs AJI-214 and AJI-100 were designed and synthesized at the Moffitt Cancer Center and shown to inhibit Aurora kinase A and JAK2 with similar potency. […] Because AJI-100 is tolerated in mouse models, a kinase target screen was performed on AJI-100 to verify its activity against Aurora kinase A and JAK2 among a panel of 140 kinases.

NC(=O)c1ccc(Nc2ncc(F)c(Nc3ccccc3)n2)cc1 [bisanilinopyrimidine (II), 5-Fluoro-N4-phenyl-N2-[4-(4-carboxamide)phenyl]pyrimidine-2,4-diamine]
phosphorylation of histone 3 serine 10 (pH3 Ser10) in T-cells [1]: reducing the phosphorylation
in vivo generation of U937-specific CTL and killing of U937 targets (U937 cells): did not inhibit CTL generation
inhibition of Aurora kinase A in kinase panel (Aurora kinase A): among the top three kinases inhibited
